Here are results for 1 compound from patent US20220184172A1, “AMPK/CASPASE-6 AXIS CONTROLS LIVER DAMAGE IN NONALCOHOLIC STEATOHEPATITIS” (The Regents of the University of California, priority 2019, published 2022).

The subject of the assay is procaspase-6 cleavage in primary hepatocytes. Description: Procaspase-6 cleavage induced by TNFα and CHX in primary hepatocytes (IB). The format is cell-based, mice. The settings on record: 40 μM pretreatment 1 hr, then 30 μg/ml CHX and 50 ng/ml TNFα 2 hrs. From the text:
FIGS. 5A-5K. AMPK phosphorylates caspase-6 to inhibit its cleavage and activation. FIG. 5A. […] IB analysis of cell lysates. n=3. Mean±SD. *, P<0.05, two-way ANOVA. FIG. 5B. […] Cell lysates were subject to caspase-6 activity assay. Mean±SD. *, P<0.05. FIG. 5C. Caspase-6 Ser^257 locates within AMPK substrate motif. FIG. 5C. discloses SEQ ID NOS 57-63, respectively, in order of appearance. FIG. 5D. In vitro kinase assay using recombinant caspase-6, and recombinant AMPKα1β1γ1 or AMPKα2β1γ1 active kinase. FIG. 5E. Alignment of caspase-6 sequence. FIG. 5E. discloses SEQ ID NOS 64-67, respectively, in order of appearance. FIG. 5F. HEK293T cells overexpressing caspase-6-myc WT, S^257A, S^257D or S^257E mutant were treated with 10 μg/ml CHX and 25 ng/ml TNFα for 2 hrs. IB analysis of cell lysates. FIGS. 5G-5J. C57BL/6J mice were fed CD-HFD for 6 weeks, followed by intraperitoneally injection of 25 mg/kg A-769662 or vehicle daily for 2 weeks while continuous CD-HI-D. Mice were sacrificed 6 hrs after last injection. FIG. 5G. IB analysis of liver lysates. n=5. FIG. 5H. Liver lysates were subject to caspase-6 activity assay. n=7. FIG. 5I. Liver sections stained as indicated therein (aCasp6 and DAPI); in the merged image sections, the different stains correspond to the grayscale shades as indicated in the single stained images to the left. Scale bar=50 μm. […] Quantification of aCasp6 staining per field in FIG. 5I. n=7. […]

On to `N#Cc1c(O)c2c(-c3ccc(-c4ccccc4O)cc3)csc2[nH]c1=O` [A-769662], for which the procaspase-6 cleavage entry is given as “significantly inhibited”.
